pIC50, pKi: −log10 of the molar value.
How the values were obtained:
[1] = system: human large intestine cancer cell line (HCT-116); assay: Human large intestine cancer (HCT-116) cell growth inhibition test; assay type: cell-based; details: 72 h, HCT-116, culture for 3 days, sulforhodamine B absorbance
Method: Human Large Intestine Cancer (HCT-116) Cell Growth Inhibition Test
The measurement of a human large intestine cancer cell growth inhibitory effect was carried out by modifying the method of Simak et al. (Cancer Research, 69, 6208 (2009)).
A human large intestine cancer cell line (HCT-116) (manufactured by DS Pharma Biomedical Co., Ltd., Cat. No. EC91091005) was cultured in McCoy's 5a (manufactured by GIBCO/Thermo Fisher Scientific, Inc., REF. 16600-082) medium containing 10% FBS (manufactured by GIBCO/Thermo Fisher Scientific, Inc., REF. 10082-147) and 1% penicillin/streptomycin/amphotericin B (manufactured by GIBCO/Thermo Fisher Scientific, Inc., REF. 15240-096) and inoculated at 1.0×10^3 cells/well in a 96-well plate (manufactured by Corning Inc., REF. 353072). After overnight culture in a carbon dioxide incubator, it was replaced with a fresh McCoy's 5a medium containing 10% FBS on the next day, and a test compound dissolved in DMSO (manufactured by Wako Pure Chemical Industries, Ltd., Code No. 043-07216) (final DMSO concentration: 0.1%) was added and left standing in a carbon dioxide incubator. After culturing for 3 days, the absorbance of each well was measured by using In Vitro Toxicology Assay Kit Sulforhodamine B based (manufactured by Sigma-Aldrich Co. LLC., Pcode 1001910706).
The rate of inhibition of cell growth at each concentration was calculated from the test compound concentration and the absorbance of sulforhodamine B, and the concentration of the test compound necessary for inhibiting 50% of cell growth (IC50 value) was calculated by using EXSUS (version 8.0.0 or version 8.0.1, manufactured by CAC Exicare Corp.).

[2] = target: T1, CDK7 (Homo sapiens, UniProt P50613); assay: CDK7 enzyme inhibition test; assay type: biochemical; details: Ki=IC50/(1+S/Km); 33P bound to MBP, [γ-33P]ATP, 30° C. for 20 minutes; read-out: Ki value of CDK7 inhibitory activity
T1 construct: purchased Carna Biosciences, Inc. 04-108
T1 sequence (P50613 whole entry): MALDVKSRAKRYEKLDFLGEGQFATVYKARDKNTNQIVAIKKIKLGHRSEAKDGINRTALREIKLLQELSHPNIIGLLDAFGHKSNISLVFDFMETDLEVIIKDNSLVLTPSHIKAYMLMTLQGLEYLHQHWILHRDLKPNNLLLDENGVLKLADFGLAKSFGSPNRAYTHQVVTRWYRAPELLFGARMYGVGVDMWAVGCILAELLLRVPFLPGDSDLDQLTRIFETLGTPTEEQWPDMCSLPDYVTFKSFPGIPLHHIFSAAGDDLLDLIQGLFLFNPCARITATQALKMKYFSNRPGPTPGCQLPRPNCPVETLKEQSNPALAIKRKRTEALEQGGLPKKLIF
T1 sequence (P51946 whole entry partner): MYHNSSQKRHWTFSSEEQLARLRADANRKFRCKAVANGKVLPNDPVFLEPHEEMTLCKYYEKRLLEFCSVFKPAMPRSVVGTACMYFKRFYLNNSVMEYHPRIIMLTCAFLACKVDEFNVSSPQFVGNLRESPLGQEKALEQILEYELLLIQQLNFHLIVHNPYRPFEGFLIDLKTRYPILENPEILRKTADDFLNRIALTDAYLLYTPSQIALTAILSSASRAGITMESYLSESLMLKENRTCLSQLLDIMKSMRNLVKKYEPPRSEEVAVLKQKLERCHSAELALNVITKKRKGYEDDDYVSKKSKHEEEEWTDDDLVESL
T1 sequence (P51948 whole entry partner): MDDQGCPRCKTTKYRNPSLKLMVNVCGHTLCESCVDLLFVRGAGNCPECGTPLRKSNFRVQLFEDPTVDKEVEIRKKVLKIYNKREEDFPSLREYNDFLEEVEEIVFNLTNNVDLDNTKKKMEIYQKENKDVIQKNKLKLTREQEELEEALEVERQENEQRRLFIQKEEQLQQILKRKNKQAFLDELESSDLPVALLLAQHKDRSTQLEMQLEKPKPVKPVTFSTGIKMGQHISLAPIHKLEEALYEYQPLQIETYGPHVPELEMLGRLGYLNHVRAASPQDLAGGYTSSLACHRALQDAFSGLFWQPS
Method: CDK7 Enzyme Inhibition Test
The preparation of a buffer solution was performed by mixing a N-2-hydroxyethylpiperazine-N′-2-ethanesulfonic acid buffer solution (HEPES buffer solution) (pH 7.4), dithiothreitol (DTT), Triton X-100, and magnesium chloride (MgCl2). A 500 μM [γ-^33P]ATP solution was used by diluting a 10 mM ATP solution and a commercially available [γ-^33P]ATP solution (manufactured by PerkinElmer, Inc., Code No. NEG-302H) with the buffer solution. A CDK7 solution was used by diluting commercially available CDK7 (manufactured by Carna Biosciences, Inc., Catalog No. 04-108) with the buffer solution. A substrate solution was used by diluting myelin basic protein (MBP) with the buffer solution. As for the preparation of a reaction solution, the buffer solution, the 500 μM [γ-^33P]ATP solution, the CDK7 solution, and the substrate solution were mixed at 4° C. to obtain a reaction solution.
CDK7 enzyme reaction was performed by adding 5 μL of a test compound solution prepared with 10% dimethyl sulfoxide (DMSO)/90% injectable distilled water, and 45 μL of the reaction solution to a 1.5 mL microtube at 4° C. and reacting in the microtube at 30° C. for 20 minutes in a water bath incubator. After the reaction, a 10% aqueous trichloroacetic acid (TCA) solution was added to each microtube while cooled to 4° C., and mixed to terminate the reaction. The resultant was left standing at 4° C. for 10 minutes and then centrifuged in a centrifuge, and the supernatant was discarded. Next, a 2% aqueous TCA solution was added, mixed, and then centrifuged in a centrifuge, and the supernatant was discarded. This washing operation was performed twice. After the washing, precipitates were dissolved in a 1 N aqueous sodium hydroxide (NaOH) solution, and the energy quantity (radioactivity) of the reaction product was measured with a liquid scintillation counter.
The calculation of the inhibitory activity of the test compound against CDK7 was performed as a test compound concentration inhibiting 50% of the amount of ^33P bound to MBP (IC50 value) by using EXSUS (version 8.0.0 or version 8.0.1, manufactured by CAC Exicare Corp.).
The calculation of a Ki value was performed according to the following calculation expression. S means the concentration of ATP contained in the reaction solution, and Km means a Michaelis-Menten constant. Ki=IC50/(1+S/Km)

Compound	pIC50 [1]	pKi [2]
CC1(C)c2[nH]nc(NC(=O)C3([Si](C)(C)C)CCC3)c2CN1C(=O)NC(c1ccccc1)C(F)(F)CO (racemic) [IV-362, N-(2,2-Difluoro-3-hydroxy-1-phenylpropyl)-6,6-dimethyl-3-[1-(trimethylsilyl)cyclobutanecarboxamido]-4,6-dihydropyrrolo[3,4-c]pyrazole-5(1H)-carboxamide]	≥ 6.30	≥ 7.30
CC(C)(CO)C(NC(=O)N1Cc2c(NC(=O)C3([Si](C)(C)C)CCC3)n[nH]c2C1(C)C)c1ccccc1 (single isomer, unassigned; (+)) [IV-672, (+)-N-(3-Hydroxy-2,2-dimethyl-1-phenylpropyl)-6,6-dimethyl-3-[1-(trimethylsilyl)cyclobutanecarboxamido]-4,6-dihydropyrrolo[3,4-c]pyrazole-5(1H)-carboxamide]	≥ 6.30	–
COC(C(=O)N1Cc2c(NC(=O)C3([Si](C)(C)C)CCC3)n[nH]c2C1(C)C)c1cccs1 (single isomer, unassigned; (+)) [IV-1547, (+)-N-{5-[2-Methoxy-2-(thiophen-2-yl)acetyl]-6,6-dimethyl-1,4,5,6-tetrahydropyrrolo[3,4-c]pyrazol-3-yl}-1-(trimethylsilyl)cyclobutanecarboxamide]	–	≥ 7.30
CC(C)(CO)C(NC(=O)N1Cc2c(NC(=O)C3([Si](C)(C)C)CCC3)n[nH]c2C1(C)C)c1cccc(F)c1 (single isomer, unassigned; (-)) [IV-920, (−)-N-[1-(3-Fluorophenyl)-3-hydroxy-2,2-dimethylpropyl]-6,6-dimethyl-3-[1-(trimethylsilyl)cyclobutanecarboxamido]-4,6-dihydropyrrolo[3,4-c]pyrazole-5(1H)-carboxamide]	–	≥ 7.30
CC1(C)c2[nH]nc(NC(=O)C3([Si](C)(C)C)CC3)c2CN1C(=O)[C@H](CO)c1ccccc1 [III-592, (S)—N-[5-(3-Hydroxy-2-phenylpropanoyl)-6,6-dimethyl-1,4,5,6-tetrahydropyrrolo[3,4-c]pyrazol-3-yl]-1-(trimethylsilyl)cyclopropanecarboxamide]	≥ 6.30	≥ 7.30
C[C@@H](Oc1ccccc1)C(=O)N1Cc2c(NC(=O)C3([Si](C)(C)C)CC3)n[nH]c2C1(C)C [III-1140, (R)—N-[6,6-Dimethyl-5-(2-phenoxypropanoyl)-1,4,5,6-tetrahydropyrrolo[3,4-c]pyrazol-3-yl]-1-(trimethylsilyl)cyclopropanecarboxamide]	≥ 6.30	≥ 7.30
CC(C)C(O)CNC(=O)N1Cc2c(NC(=O)C3([Si](C)(C)C)CCC3)n[nH]c2C1(C)C (stereo not shown) [IV-446, N-(2-Hydroxy-3-methylbutyl)-6,6-dimethyl-3-[1-(trimethylsilyl)cyclobutanecarboxamido]-4,6-dihydropyrrolo[3,4-c]pyrazole-5(1H)-carboxamide]	≥ 6.30	≥ 7.30
CC1(C)c2[nH]nc(NC(=O)C3([Si](C)(C)C)CCC3)c2CN1C(=O)NC(CO)c1cccnc1 (stereo not shown) [IV-542, N-[2-Hydroxy-1-(pyridin-3-yl)ethyl]-6,6-dimethyl-3-[1-(trimethylsilyl)cyclobutanecarboxamido]-4,6-dihydropyrrolo[3,4-c]pyrazole-5(1H)-carboxamide]	–	≥ 7.30
CC1(C)c2[nH]nc(NC(=O)C3([Si](C)(C)C)CCC3)c2CN1C(=O)CC(CO)c1ccccc1 (stereo not shown) [IV-558, N-[5-(4-Hydroxy-3-phenylbutanoyl)-6,6-dimethyl-1,4,5,6-tetrahydropyrrolo[3,4-c]pyrazol-3-yl]-1-(trimethylsilyl)cyclobutanecarboxamide]	≥ 6.30	–
CC1(C)c2[nH]nc(NC(=O)C3([Si](C)(C)C)CCC3)c2CN1C(=O)CC(O)c1ccccc1 (stereo not shown) [IV-562, N-[5-(3-Hydroxy-3-phenylpropanoyl)-6,6-dimethyl-1,4,5,6-tetrahydropyrrolo[3,4-c]pyrazol-3-yl]-1-(trimethylsilyl)cyclobutanecarboxamide]	≥ 6.30	–
CC1(C)c2[nH]nc(NC(=O)C3([Si](C)(C)C)CCC3)c2CN1C(=O)[C@H](CO)c1ccccc1 [IV-633, (S)—N-[5-(3-Hydroxy-2-phenylpropanoyl)-6,6-dimethyl-1,4,5,6-tetrahydropyrrolo[3,4-c]pyrazol-3-yl]-1-(trimethylsilyl)cyclobutanecarboxamide]	≥ 6.30	≥ 7.30
COCC(C(=O)N1Cc2c(NC(=O)C3([Si](C)(C)C)CCC3)n[nH]c2C1(C)C)c1ccccc1 (stereo not shown) [IV-634, N-[5-(3-Methoxy-2-phenylpropanoyl)-6,6-dimethyl-1,4,5,6-tetrahydropyrrolo[3,4-c]pyrazol-3-yl]-1-(trimethylsilyl)cyclobutanecarboxamide]	≥ 6.30	≥ 7.30
CCC(O)(CC)C[C@@H](NC(=O)N1Cc2c(NC(=O)C3([Si](C)(C)C)CCC3)n[nH]c2C1(C)C)c1ccccc1 [IV-759, (R)—N-(3-Ethyl-3-Hydroxy-1-phenylpentyl)-6,6-dimethyl-3-[1-(trimethylsilyl)cyclobutanecarboxamido]-4,6-dihydropyrrolo[3,4-c]pyrazole-5(1H)-carboxamide]	≥ 6.30	–
CC1(C)c2[nH]nc(NC(=O)C3([Si](C)(C)C)CCC3)c2CN1C(=O)N[C@@H](CO)Cc1ccccc1 [IV-861, (R)—N-(1-Hydroxy-3-phenylpropan-2-yl)-6,6-dimethyl-3-[1-(trimethylsilyl)cyclobutanecarboxamido]-4,6-dihydropyrrolo[3,4-c]pyrazole-5(1H)-carboxamide]	≥ 6.30	–
CC1(C)c2[nH]nc(NC(=O)C3([Si](C)(C)C)CCC3)c2CN1C(=O)C(Oc1ccccc1)c1ccccc1 (stereo not shown) [IV-1211, N-[6,6-Dimethyl-5-(2-phenoxy-2-phenylacetyl)-1,4,5,6-tetrahydropyrrolo[3,4-c]pyrazol-3-yl]-1-(trimethylsilyl)cyclobutanecarboxamide]	≥ 6.30	–
COCCC(C(=O)N1Cc2c(NC(=O)C3([Si](C)(C)C)CCC3)n[nH]c2C1(C)C)c1ccccc1 (stereo not shown) [IV-1224, N-[5-(4-Methoxy-2-phenylbutanoyl)-6,6-dimethyl-1,4,5,6-tetrahydropyrrolo[3,4-c]pyrazol-3-yl]-1-(trimethylsilyl)cyclobutanecarboxamide]	≥ 6.30	–
CC(Oc1ccccc1Cl)C(=O)N1Cc2c(NC(=O)C3([Si](C)(C)C)CCC3)n[nH]c2C1(C)C (stereo not shown) [IV-1266, N-{5-[2-(2-Chlorophenoxy)propanoyl]-6,6-dimethyl-1,4,5,6-tetrahydropyrrolo[3,4-c]pyrazol-3-yl}-1-(trimethylsilyl)cyclobutanecarboxamide]	≥ 6.30	–
CC(Oc1cccc(Cl)c1)C(=O)N1Cc2c(NC(=O)C3([Si](C)(C)C)CCC3)n[nH]c2C1(C)C (stereo not shown) [IV-1268, N-{5-[2-(3-Chlorophenoxy)propanoyl]-6,6-dimethyl-1,4,5,6-tetrahydropyrrolo[3,4-c]pyrazol-3-yl}-1-(trimethylsilyl)cyclobutanecarboxamide]	≥ 6.30	–
CN(C)CC(Oc1ccccc1)C(=O)N1Cc2c(NC(=O)C3([Si](C)(C)C)CCC3)n[nH]c2C1(C)C (stereo not shown) [IV-1372, N-{5-[3-(Dimethylamino)-2-phenoxypropanoyl]-6,6-dimethyl-1,4,5,6-tetrahydropyrrolo[3,4-c]pyrazol-3-yl}-1-(trimethylsilyl)cyclobutanecarboxamide]	–	≥ 7.30
